Entries after “also recorded” stand apart in the source; their conditions may differ.
What was measured:
[1] = biological target: T1, TrkB receptor (Homo sapiens, UniProt Q16620); assay: TrkB expression in TrkB stably-expressing NIH-3T3 fibroblasts, time course; type: cell-based; settings: 1 μM, 60 min
T1 construct: host or cells: NIH 3T3 fibroblasts, G418 selection
Procedure: (§1) To study the activation of the TrkB receptor with BDNF and/or with the peptides, NIH 3T3 cells were used, stably transfected with the TrkB receptor (obtained from Montreal Neurological Institute, Montreal, Quábec, Canada). The cell culture medium used for this cell line was: DMEM-high glucose, 10 percent normal calf serum, 1 percent glutamax, 1 percent sodium pyruvate, 1 percent penicillin-streptomycin; supplemented with the selection antibiotic G418 in a final concentration of 100 μg/ml (to guaranty the stable expression of the Trkb transgene). All Medium components were purchase from Gibco Life Technologies, Invitrogen, Grand Island, N.Y., USA.
The NIH 3T3 fibroblasts stably expressing the TrkB receptor were vehicle-treated or treated with BDNF peptides B-5 and B-3 at a concentration of 1 μM or with BDNF at a concentration of 20 ng/ml (0.79 nM) for 5, 15 or 60 min (FIG. 5E, F). […] The effect was time-dependent and was pronounced at 60 min treatment. […] The effect on the increase in expression of TrkB by Peptides B-5 and B-3 could be the way in which the peptides potentiate the BDNF pathway to avoid saturation of the receptors, and/or promote their neurotrophic effect by increasing the expressions of both BDNF (FIGS. 5A and 5B) and TrkB (FIGS. 5C through 5F).

[2] = system: primary E18 hippocampal cells; assay: Rescue of H2O2-induced neurotoxicity (LDH assay); type: cell-based, mouse
Procedure: Evaluation of cell death and cell viability was performed using the LDH kit (Promega, Madison Wis., USA), following manufactures instructions. Percentages of cell death and cell viability were plotted separately.
In order to evaluate the potential neuroprotective effect of BDNF peptides, the primary E18 hippocampal cells were challenged with 0, 60, 80 and 100 μM H2O2 for 6 hours, and then cells were washed with culture medium and fresh culture medium was added containing the peptides B-5 or B-3 or BDNF or BDNF plus B-3 (see FIGS. 4A and 4B). After 24 hours, the cell viability was assayed by the LDH method.

[3] = system: BDNF; assay: BDNF expression, Western blot, 5 days treatment; type: cell-based, mouse
Procedure: Following treatment in 6-well plates, cells were washed 2× in glucose buffered saline, GBS (5.4 mM KCl, 138 mM NaCl, 22 mM glucose, and 2 mM Na—KPO pH 7.2), and then lysed by 5 min incubation on ice in 100 or 150 μl of ice-cold RIPA buffer (PBS, 1% w/v NP-40 from Fisher Scientific, 0.1% w/v SDS, and 0.5% w/v sodium desoxycholate) containing 1 mM AEBSF (Gold Biotechnology, St. Louis, Mo., USA), 10 μg/ml aprotinin (Sigma-Aldrich, St. Louis, Mo., USA), and 20 μg/ml of leupeptin and pepstatin (US Biochemicals, Cleveland, Ohio, USA), and phosphatase inhibitors: NaF, Na orthovanadate, (3-glycerophosphate, and microcystein (Sigma-Aldrich, St. Louis, Mo., USA). Extracts were prepared by collecting and pooling a minimum of 2 wells by scraping, and lysates were centrifuged at 20,000×g for 10 min at 4° C. Protein concentration of each cell lysate was determined using the BCA kit (Thermo Scientific, Rockford, Ill., USA). The lysates (7.5-20 μg total protein) were separated on 10% SDS-PAGE gels (except for BDNF where 12% gels were employed) and transferred to 0.45 μm PVDF membrane (Pall, Pensacola, Fla., USA) for probing with antibodies as noted. Blots were blocked for 1 hr at 37° C. in 1×TBST (0.05% Tween 20 in TBS) containing 5% w/v blotting grade dry milk (Bio-rad, Hercules, Calif., USA), incubated in primary antibody overnight in blocking buffer at 4° C., washed 3×10 min in TBST at room temperature, followed by incubation with secondary antibody, i.e., peroxidase-conjugated anti-mouse or anti rabbit IgG (Jackson ImmunoResearch Laboratories, West Grove, Pa., USA) diluted in blocking buffer. Blots were washed 3×10 min in TBST and immunoreactive protein bands were visualized with enhanced chemiluminescence (ECL) reagents (Pierce, Rockford, Ill., USA). The ECL films of the blots were scanned and analyzed using Multi Gauge software version 3.0 (Fujifilm, Tokyo, Japan).
The following primary antibodies were used: rabbit polyclonal anti-NFM (1:1000; Chemicon/Millipore, Billerica, Mass., USA); mouse monoclonal anti-NeuN, clone A60 (1:500; Millipore, Billerica, Mass., USA); rabbit polyclonal anti-Tuj-1, (3—III-tubulin (Covance; 1:800, Emeryville, Calif., USA); mouse monoclonal SMI 52 to the adult isoforms of MAP-2, MAP2a,b (1:1000; Covance, Emeryvilly, Calif., USA); rabbit polyclonal anti-Synapsin I (1:2000; Stressgen, Farmingdale, N.Y., USA); rabbit monoclonal anti-PSD95 (1:1000; Cell signaling, Danvers, Mass., USA); anti tau 92e (1:10000); mouse monoclonal anti-BDNF (1:1000; Calbiochem, Gibbstown, N.J., USA); rabbit polyclonal anti-TrkB (total) (1:500; Santa Cruz Biotechnology, Santa Cruz, Calif., USA); rabbit polyclonal anti-pTrkB (Tyr706) (1:400; Santa Cruz Biotechnology, Santa Cruz, Calif., USA), TrkC (1:1000; Cruz Biotechnology, Santa Cruz, Calif., USA); and pTrkY490 (1:500; Upstate USA Inc., Charlottesville, Va., USA). For loading control, the blots were developed with rabbit polyclonal antibody to GAPDH (1:2000; Santa Cruz Biotechnology, Santa Cruz, Calif., USA).
To investigate the molecular mechanism by which the BDNF peptides promoted neurogenic/neurotrophic activities, the hippocampal primary cultured neurons were treated with the peptides or BDNF for five days and compared with the control medium treated cells.

[4] = biological target: T2, TrkC (Homo sapiens, UniProt Q16288); assay: Trk phosphorylation and TrkC expression in TrkC stably-expressing NIH-3T3 cells; type: cell-based; settings: for expression of TrkC: 1 μM; for activation of TrkC receptor: peptides 1 μM
T2 construct: expressed in transfected cells; host or cells: NIH-3T3 fibroblasts
T2 sequence (Q16288 32-839, species assumed): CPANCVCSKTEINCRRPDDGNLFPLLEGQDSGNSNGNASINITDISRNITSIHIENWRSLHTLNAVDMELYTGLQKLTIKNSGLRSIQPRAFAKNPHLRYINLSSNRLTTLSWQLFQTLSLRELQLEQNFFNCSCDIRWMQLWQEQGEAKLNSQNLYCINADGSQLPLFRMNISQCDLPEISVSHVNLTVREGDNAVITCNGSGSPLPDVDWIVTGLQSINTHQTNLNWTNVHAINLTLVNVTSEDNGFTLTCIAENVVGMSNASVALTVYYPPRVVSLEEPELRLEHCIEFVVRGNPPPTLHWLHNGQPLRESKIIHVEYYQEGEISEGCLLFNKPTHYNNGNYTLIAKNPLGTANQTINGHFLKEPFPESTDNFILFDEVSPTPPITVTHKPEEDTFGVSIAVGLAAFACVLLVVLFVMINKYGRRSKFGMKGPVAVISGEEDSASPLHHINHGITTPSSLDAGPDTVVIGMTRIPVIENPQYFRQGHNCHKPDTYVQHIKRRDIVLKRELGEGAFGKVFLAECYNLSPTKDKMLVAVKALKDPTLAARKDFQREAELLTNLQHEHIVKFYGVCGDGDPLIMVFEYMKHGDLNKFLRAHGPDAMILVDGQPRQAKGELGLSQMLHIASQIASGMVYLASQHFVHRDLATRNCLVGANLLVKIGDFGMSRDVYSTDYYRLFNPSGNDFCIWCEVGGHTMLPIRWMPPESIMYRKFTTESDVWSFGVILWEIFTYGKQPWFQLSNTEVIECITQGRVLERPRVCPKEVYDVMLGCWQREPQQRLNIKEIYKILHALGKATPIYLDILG

[5] = biological target: T1, TrkB receptor; assay: Competition with BDNF for activation (pTrkB) of TrkB in NIH 3T3 cells stably expressing TrkB; type: cell-based; settings: 0.05 μM to 10 μM with BDNF 1 ng/ml (0.04 nM), 15 min; dose-dependent
Procedure: as §1
To evaluate a possible competitive role of the peptides in the activation of TrkB receptor by BDNF, a fibroblast (NIH 3T3) cell line stably expressing the TrkB receptor was used. Cells were vehicle-treated or treated with BDNF 1 ng/ml (0.04 nM) in the presence or absence of 0.05 μM to 10 μM B-5 or B-3 for 15 min (FIG. 7A). […] As observed in primary neuronal cultures (shown in FIGS. 5C and D), the treatment with the peptides alone for 15 min induced a weak but significant activation of TrkB receptor when compared to control (ANOVA, p<0.001).

[6] = 80 μM H2O2 6 h, then treatment 24 h

T1 sequence (Q16620 32-822): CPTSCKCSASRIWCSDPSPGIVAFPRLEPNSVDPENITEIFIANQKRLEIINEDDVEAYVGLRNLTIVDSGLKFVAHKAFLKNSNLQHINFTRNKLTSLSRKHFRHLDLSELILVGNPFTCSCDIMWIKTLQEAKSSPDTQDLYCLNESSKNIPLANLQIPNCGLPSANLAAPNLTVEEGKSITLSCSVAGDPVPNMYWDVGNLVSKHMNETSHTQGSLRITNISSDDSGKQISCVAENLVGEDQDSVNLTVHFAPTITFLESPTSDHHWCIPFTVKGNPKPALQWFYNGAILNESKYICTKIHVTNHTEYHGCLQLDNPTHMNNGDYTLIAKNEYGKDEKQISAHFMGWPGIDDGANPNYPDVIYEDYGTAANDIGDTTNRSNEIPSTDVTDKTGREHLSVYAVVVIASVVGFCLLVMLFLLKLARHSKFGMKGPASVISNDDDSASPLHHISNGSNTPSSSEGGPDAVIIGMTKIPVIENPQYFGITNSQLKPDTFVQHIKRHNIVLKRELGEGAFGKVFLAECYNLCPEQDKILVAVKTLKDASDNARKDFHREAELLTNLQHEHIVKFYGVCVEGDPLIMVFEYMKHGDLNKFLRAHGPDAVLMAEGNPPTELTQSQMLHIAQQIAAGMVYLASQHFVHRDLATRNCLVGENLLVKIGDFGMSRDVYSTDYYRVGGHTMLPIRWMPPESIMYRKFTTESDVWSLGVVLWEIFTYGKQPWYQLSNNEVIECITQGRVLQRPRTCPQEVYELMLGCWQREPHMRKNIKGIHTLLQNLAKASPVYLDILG

Row | Substance | expression of the receptor TrkB [1] | cell viability (LDH) ([2]; 60 μM H2O2 6 h, then treatment 24 h) | cell death (LDH) [2, 6] | cell viability (LDH) [2, 6] | expression of BDNF (Western blot) ([3]; 0.1 μM) | expression of BDNF (Western blot) ([3]; 1 μM) | expression of BDNF (Western blot) ([3]; vs control medium) | expression of TrkC [4] | activation of TrkC receptor [4] | competitive inhibition of the activation of TrkB receptor by BDNF [5] | potentiation of the neuroprotective effect of BDNF ([2]; after H2O2 exposure, combined with BDNF) | neuroprotective effect of the peptide alone ([2]; after H2O2 exposure, without BDNF)
1 | Ac-I-K-R-G-CONH2 [Peptide B-5] | marked increase | significantly increased the cell viability | significantly reduced cell death; also recorded: moderate effect in reducing the percentage of cell death | significantly increased the cell viability | strongest induction | lost | induced the expression of BDNF | neither BDNF (20 ng/mL) nor peptides B-5 (1 μM) and B-3 (1 μM) were able to modify the expression of TrkC | neither the peptides nor BDNF were able to activate this receptor | significant competitive inhibition | – | –
2 | Ac-S-KKR-CONH2 [Peptide B-3] | marked increase | – | – | – | not at 0.1 μM | induced an increase | induced the expression of BDNF | neither BDNF (20 ng/mL) nor peptides B-5 (1 μM) and B-3 (1 μM) were able to modify the expression of TrkC | neither the peptides nor BDNF were able to activate this receptor | significant competitive inhibition | significantly potentiated; also recorded: potentiates the neuroprotective effect of BDNF | not sufficient to exert a significant effect

From US9512178B2, “Neurogenic brain-derived neurotrophic factor peptides” (Research Foundation for Mental Hygiene, Inc., priority 2012, dated 2016)
